Source: patent publication US20250114345A1, “COMPOUNDS AND COMPOSITIONS AS CBP/P300 DEGRADERS AND USES THEREOF” (Oncopia Therapeutics, Inc. d/b/a/ SK Life Science Labs, priority 2023, published 2025)

Target: T1, p300 (Homo sapiens, UniProt Q09472)
T1 construct: host or cells: A549 P300 HiBit cells
Test: P300 degradation, HiBit technology in A549 P300 HiBit cells (2 h)
Format: cell-based
Settings: 2 hrs post treatment; for Dmax: A549, A549 P300 HiBit cells; for DC50: A549 P300 HiBit cells
Procedure, shortened: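 Degradation potency and Dmax came from HiBiT luminescence in tagged A549 cells treated with serially diluted compound (DMSO stocks at 10 mM) after overnight equilibration in F-12K with 10% heat-inactivated FBS.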

T1 sequence (Q09472 whole entry): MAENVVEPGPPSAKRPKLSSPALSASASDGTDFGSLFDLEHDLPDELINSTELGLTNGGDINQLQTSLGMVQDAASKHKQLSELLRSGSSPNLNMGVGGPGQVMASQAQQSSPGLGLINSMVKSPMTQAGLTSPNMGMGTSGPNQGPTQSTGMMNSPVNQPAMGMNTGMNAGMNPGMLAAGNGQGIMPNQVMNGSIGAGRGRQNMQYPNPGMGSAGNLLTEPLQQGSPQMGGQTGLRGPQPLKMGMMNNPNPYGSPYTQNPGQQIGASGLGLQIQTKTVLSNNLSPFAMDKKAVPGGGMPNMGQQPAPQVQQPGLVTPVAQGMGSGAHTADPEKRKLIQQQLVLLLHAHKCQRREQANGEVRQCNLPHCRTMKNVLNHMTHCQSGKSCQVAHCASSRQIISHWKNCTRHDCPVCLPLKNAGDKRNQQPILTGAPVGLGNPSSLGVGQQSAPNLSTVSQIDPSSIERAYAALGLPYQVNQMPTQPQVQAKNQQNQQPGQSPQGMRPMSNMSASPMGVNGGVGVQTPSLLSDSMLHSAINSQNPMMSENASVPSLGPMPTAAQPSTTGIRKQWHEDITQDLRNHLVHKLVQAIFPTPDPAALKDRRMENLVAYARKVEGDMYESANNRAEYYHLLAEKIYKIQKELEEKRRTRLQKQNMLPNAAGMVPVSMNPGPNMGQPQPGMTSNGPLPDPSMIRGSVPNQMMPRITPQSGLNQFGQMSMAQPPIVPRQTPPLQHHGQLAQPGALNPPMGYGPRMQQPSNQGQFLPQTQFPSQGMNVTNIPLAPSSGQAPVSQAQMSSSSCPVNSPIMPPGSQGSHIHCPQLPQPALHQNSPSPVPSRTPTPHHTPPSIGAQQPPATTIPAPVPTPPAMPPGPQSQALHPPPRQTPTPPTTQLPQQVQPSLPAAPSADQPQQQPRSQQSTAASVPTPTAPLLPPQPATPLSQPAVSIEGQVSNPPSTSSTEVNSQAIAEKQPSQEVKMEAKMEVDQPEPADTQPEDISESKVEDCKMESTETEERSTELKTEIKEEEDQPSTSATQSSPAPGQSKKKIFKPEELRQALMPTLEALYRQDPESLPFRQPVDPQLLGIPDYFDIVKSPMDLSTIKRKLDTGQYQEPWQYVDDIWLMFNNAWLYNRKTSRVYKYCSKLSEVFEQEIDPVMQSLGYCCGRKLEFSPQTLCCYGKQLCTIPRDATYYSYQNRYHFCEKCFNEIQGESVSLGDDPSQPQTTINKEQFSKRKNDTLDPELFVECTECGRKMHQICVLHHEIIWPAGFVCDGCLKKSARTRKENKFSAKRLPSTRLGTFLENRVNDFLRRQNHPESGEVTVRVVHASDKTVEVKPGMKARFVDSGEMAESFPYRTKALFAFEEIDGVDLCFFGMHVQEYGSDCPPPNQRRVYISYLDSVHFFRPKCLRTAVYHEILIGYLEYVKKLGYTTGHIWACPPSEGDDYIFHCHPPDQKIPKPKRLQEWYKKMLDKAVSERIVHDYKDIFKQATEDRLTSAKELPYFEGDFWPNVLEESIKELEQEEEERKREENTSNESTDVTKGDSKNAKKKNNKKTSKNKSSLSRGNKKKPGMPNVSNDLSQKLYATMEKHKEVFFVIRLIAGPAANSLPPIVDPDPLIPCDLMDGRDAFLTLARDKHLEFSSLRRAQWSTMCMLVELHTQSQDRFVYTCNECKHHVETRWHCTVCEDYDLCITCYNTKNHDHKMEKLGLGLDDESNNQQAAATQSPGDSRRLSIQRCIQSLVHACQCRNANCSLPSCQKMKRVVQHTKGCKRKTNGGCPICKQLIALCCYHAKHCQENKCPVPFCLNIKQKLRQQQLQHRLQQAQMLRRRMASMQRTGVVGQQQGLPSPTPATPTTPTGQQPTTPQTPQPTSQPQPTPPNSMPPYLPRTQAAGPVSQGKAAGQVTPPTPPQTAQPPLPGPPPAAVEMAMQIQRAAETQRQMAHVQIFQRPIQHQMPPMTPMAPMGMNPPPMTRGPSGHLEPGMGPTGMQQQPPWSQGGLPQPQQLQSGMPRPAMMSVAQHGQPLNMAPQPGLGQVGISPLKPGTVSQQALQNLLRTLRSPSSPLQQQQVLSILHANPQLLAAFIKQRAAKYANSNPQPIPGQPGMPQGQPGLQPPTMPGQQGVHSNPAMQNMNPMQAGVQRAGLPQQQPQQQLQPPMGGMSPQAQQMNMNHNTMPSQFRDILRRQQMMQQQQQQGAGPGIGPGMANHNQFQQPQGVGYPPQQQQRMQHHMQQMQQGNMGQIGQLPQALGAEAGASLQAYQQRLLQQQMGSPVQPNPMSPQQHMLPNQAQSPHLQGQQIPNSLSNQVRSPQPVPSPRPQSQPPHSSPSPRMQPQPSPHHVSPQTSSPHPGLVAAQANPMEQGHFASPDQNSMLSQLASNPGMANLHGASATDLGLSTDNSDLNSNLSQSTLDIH

Row | Structure (SMILES) | Dmax | DC50
1 | CN1C(=O)Cc2cc(-c3cccc4cc(-c5ccc(C(=O)NCC#Cc6ccc7occ(C8CCC(=O)NC8=O)c7c6)nc5)ncc34)ccc21 (stereo not shown) [Example A104, N-(3-(3-(2,6-dioxo-piperidin-3-yl)benzofuran-5-yl)prop-2-yn-1-yl)-5-(8-(1-methyl-2-oxoindolin-5-yl)isoquinolin-3-yl)picolinamide] | < 20% | > 1000 nM
2 | CC(C#Cc1ccc2occ(C3CCC(=O)NC3=O)c2c1)NC(=O)c1ccc(-c2ncc(N(C)c3cc(C(C)C)c4c(c3)n(C)c(=O)n4C)cn2)cn1 (stereo not shown) [Example A105, N-(4-(3-(2,6-dioxo-piperidin-3-yl)benzofuran-5-yl)but-3-yn-2-yl)-5-(5-((7-isopropyl-1,3-dimethyl-2-oxo-2,3-dihydro-1H-benzo [d]imidazol-5-yl)(methyl)amino)pyrimidin-2-yl)picolinamide] | < 20% | > 1000 nM
3 | CC(C)c1cc(N(C)c2cnc(-c3ccc(C(=O)NCC#Cc4ccc5occ(C6CCC(=O)NC6=O)c5c4)nc3)nc2)cc2c1n(C)c(=O)n2C (stereo not shown) [Example A106, N-(3-(3-(2,6-dioxo-piperidin-3-yl)benzofuran-5-yl)prop-2-yn-1-yl)-5-(5-((7-isopropyl-1,3-dimethyl-2-oxo-2,3-dihydro-1H-benzo [d]imidazol-5-yl)(methyl)amino)pyrimidin-2-yl)picolinamide] | > 80% | 1 to 9.9 nM
4 | Cc1cc(-c2cn(C)c(=O)c3cc(-c4ccc(C(=O)NCC#Cc5ccc6occ(C7CCC(=O)NC7=O)c6c5)nc4)ncc23)cc2c1n(C)c(=O)n2C (stereo not shown) [Example A107, N-(3-(3-(2,6-dioxo-piperidin-3-yl)benzofuran-5-yl)prop-2-yn-1-yl)-5-(6-methyl-5-oxo-8-(1,3,7-trimethyl-2-oxo-2,3-dihydro-1H-benzo[d]imidazol-5-yl)-5,6-dihydro-2,6-naphthyridin-3-yl)picolinamide] | > 80% | < 1 nM
5 | CC(C)c1cc(N2CCOc3cc(-c4ccc(C(=O)NCC#Cc5ccc6occ(C7CCC(=O)NC7=O)c6c5)nc4)c(F)cc32)cc2c1n(C)c(=O)n2C (stereo not shown) [Example A110, N-(3-(3-(2,6-dioxo-piperidin-3-yl)benzofuran-5-yl)prop-2-yn-1-yl)-5-(6-fluoro-4-(7-isopropyl-1,3-dimethyl-2-oxo-2,3-dihydro-1H-benzo[d]imidazol-5-yl)-3,4-dihydro-2H-benzo[b][1,4]oxazin-7-yl)picolinamide] | > 80% | 1 to 9.9 nM
6 | Cc1cc(-c2ncc(N(C)c3cc(C4CCN(C)CC4)c4c(c3)n(C)c(=O)n4C)cn2)cnc1C(=O)NCC#Cc1ccc2occ(C3CCC(=O)NC3=O)c2c1 (stereo not shown) [Example A112, 5-(5-((1,3-dimethyl-7-(1-methylpiperidin-4-yl)-2-oxo-2,3-dihydro-1H-benzo [d]imidazol-5-yl)(methyl)amino)pyrimidin-2-yl)-N-(3-(3-(2,6-dioxopiperidin-3-yl)benzofuran-5-yl)prop-2-yn-1-yl)-3-methylpicolinamide] | > 80% | 1 to 9.9 nM
7 | CC(C)c1cc(N2CCOc3cc(-c4ccc(C(=O)NCC#Cc5ccc6occ(C7CCC(=O)NC7=O)c6c5)nc4)c(Cl)cc32)cc2c1n(C)c(=O)n2C (stereo not shown) [Example A113, 5-(6-chloro-4-(7-isopropyl-1,3-dimethyl-2-oxo-2,3-dihydro-1H-benzo[d]imidazol-5-yl)-3,4-dihydro-2H-benzo[b][1,4]oxazin-7-yl)-N-(3-(3-(2,6-dioxopiperidin-3-yl)benzofuran-5-yl)prop-2-yn-1-yl)picolinamide] | > 80% | 10 to 99 nM
8 | Cc1cc(-c2ncc(N(C)c3cc(C4CCOCC4)c4oc(=O)n(C)c4c3)cn2)cnc1C(=O)NCC#Cc1ccc2occ(C3CCC(=O)NC3=O)c2c1 (stereo not shown) [Example A114, N-(3-(3-(2,6-dioxo-piperidin-3-yl)benzofuran-5-yl)prop-2-yn-1-yl)-3-methyl-5-(5-(methyl (3-methyl-2-oxo-7-(tetrahydro-2H-pyran-4-yl)-2,3-dihydrobenzo[d]oxazol-5-yl)amino)pyrimidin-2-yl)picolinamide] | < 20% | > 1000 nM
9 | Cc1cc(-c2ncc(N(C)c3cc(C(C)C)c4c(c3)n(C)c(=O)n4C)cc2Cl)cnc1C(=O)NCC#Cc1ccc2occ(C3CCC(=O)NC3=O)c2c1 (stereo not shown) [Example A116, 3-chloro-N-(3-(3-(2,6-dioxopiperidin-3-yl)benzofuran-5-yl)prop-2-yn-1-yl)-5-((7-isopropyl-1,3-dimethyl-2-oxo-2,3-dihydro-1H-benzo [d]imidazol-5-yl)(methyl)amino)-5′-methyl-[2,3′-bipyridine]-6′-carboxamide] | > 80% | 1 to 9.9 nM
10 | CC(C)c1cc(N2CCCc3cc(-c4ccc(C(=O)NCC#Cc5ccc6occ(C7CCC(=O)NC7=O)c6c5)nc4)c(F)cc32)cc2c1n(C)c(=O)n2C (stereo not shown) [Example A117, N-(3-(3-(2,6-dioxo-piperidin-3-yl)benzofuran-5-yl)prop-2-yn-1-yl)-5-(7-fluoro-1-(7-isopropyl-1,3-dimethyl-2-oxo-2,3-dihydro-1H-benzo [d]imidazol-5-yl)-1,2,3,4-tetrahydro-quinolin-6-yl)picolinamide] | > 80% | 1 to 9.9 nM
11 | Cn1c(=O)n(C)c2c(N3CC[Si](C)(C)CC3)nc(-c3cccc4cc(-c5ccc(C(=O)NCC#Cc6ccc7occ(C8CCC(=O)NC8=O)c7c6)nc5)ncc34)cc21 (stereo not shown) [Example A118, 5-(8-(4-(4,4-dimethyl-1,4-azasilinan-1-yl)-1,3-dimethyl-2-oxo-2,3-dihydro-1H-imidazo[4,5-c]pyridin-6-yl)isoquinolin-3-yl)-N-(3-(3-(2,6-dioxopiperidin-3-yl)benzofuran-5-yl)prop-2-yn-1-yl)picolinamide] | 60 to 79% | 10 to 99 nM
12 | Cn1c(=O)oc2cc(-c3cccc4cc(-c5ccc(C(=O)NCC#Cc6ccc7occ(C8CCC(=O)NC8=O)c7c6)nc5)ncc34)ccc21 (stereo not shown) [Example A120, N-(3-(3-(2,6-dioxo-piperidin-3-yl)benzofuran-5-yl)prop-2-yn-1-yl)-5-(8-(3-methyl-2-oxo-2,3-dihydrobenzo[d]oxazol-6-yl)isoquinolin-3-yl)picolinamide] | < 20% | > 1000 nM
13 | Cn1c(=O)n(C)c2c(C3CCS(=O)(=O)CC3)nc(-c3cccc4cc(-c5ccc(C(=O)NCC#Cc6ccc7occ(C8CCC(=O)NC8=O)c7c6)nc5)ncc34)cc21 (stereo not shown) [Example A123, 5-(8-(4-(1,1-dioxido-tetrahydro-2H-thiopyran-4-yl)-1,3-dimethyl-2-oxo-2,3-dihydro-1H-imidazo [4,5-c]pyridin-6-yl)isoquinolin-3-yl)-N-(3-(3-(2,6-dioxopiperidin-3-yl)benzofuran-5-yl)prop-2-yn-1-yl)picolinamide] | 60 to 79% | 1 to 9.9 nM
14 | Cc1cc(-c2ccc(Nc3cc(C(C)C)c4c(c3)n(C)c(=O)n4C)cn2)cnc1C(=O)NCC#Cc1ccc2occ(C3CCC(=O)NC3=O)c2c1 (stereo not shown) [Example A125, N-(3-(3-(2,6-dioxo-piperidin-3-yl)benzofuran-5-yl)prop-2-yn-1-yl)-5-((7-isopropyl-1,3-dimethyl-2-oxo-2,3-dihydro-1H-benzo [d]imidazol-5-yl)amino)-5′-methyl-[2,3′-bipyridine]-6′-carboxamide] | 40 to 59% | 10 to 99 nM
